Test results from patent publication US20240317727A1 (Duke University, priority 2018, published 2024).

What was measured:
[1] = molecular target: T1, recombinant HSF1 DNA-binding domain (DBD) (Homo sapiens, UniProt Q00613); experiment: Differential Scanning Fluorimetry (DSF), HSF1 DBD melting temperature
T1 sequence (Q00613 15-120): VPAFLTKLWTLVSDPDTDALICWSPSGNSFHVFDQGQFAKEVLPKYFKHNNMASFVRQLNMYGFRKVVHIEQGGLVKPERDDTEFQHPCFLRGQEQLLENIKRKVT

[2] = test system: heat shock induced chaperone (Hsp25 and Hsp70) expression; experiment: Heat shock induced chaperone expression in MEFs, immunoblotting; type: cell-based, mouse; details: heat shock 42° C. 30 mins, 6-hour recovery, FIG. 3
Procedure: The MEFs were then subjected to heat shock stress at 42° C. for 30 mins to activate HSF1. After heat shock, the MEFs were incubated at 37° C. for a 6-hour recovery. The whole cell lysates were collected at the end of the experiment, and proteins of interest, including Hsp25, Hsp70, HSF1 and GAPDH (as loading control) were assessed by immunoblotting with the corresponding antibody.

[3] = test system: HSF1 regulated transcripts; experiment: HSF1 regulated transcripts in C4-2 cells; type: cell-based, human; details: FIG. 4C
[4] = test system: cancer cell lines in the NCI60 collection; experiment: NCI60 collection, cell growth and viability (overall); type: cell-based; details: incubated for two days, FIG. 8
Procedure: FIG. 8 is a graph showing the compounds of the disclosure suppress the growth of a broad range of cancer types. […] The cancer origins of the different cell lines are indicated with different colors.
HSF1 binding compounds were tested for its activity in suppressing the growth of a broad range of cancer types. For example, Compound 0017 was incubated for two days with a diverse series of cancer cell lines in the NCI60 collection and cell growth and viability were measured, and the results are shown in Table 4.

CCRF-CEM = experiment: NCI60 cell growth and viability: CCRF-CEM; type: cell-based; details: Leukemia, two days
RPMI-8226 = experiment: NCI60 cell growth and viability: RPMI-8226; type: cell-based; details: RPMI-8226, Leukemia, two days
A549/ATCC = experiment: NCI60 cell growth and viability: A549/ATCC; type: cell-based; details: Non-Small Cell Lung Cancer, two days
EKVX = experiment: NCI60 cell growth and viability: EKVX; type: cell-based; details: Non-Small Cell Lung Cancer, two days
HOP-62 = experiment: NCI60 cell growth and viability: HOP-62; type: cell-based; details: HOP-62, Non-Small Cell Lung Cancer, two days
NCI-H226 = type: cell-based; details: NCI-H226, Non-Small Cell Lung Cancer, two days
NCI-H460 = type: cell-based; details: NCI-H460, Non-Small Cell Lung Cancer, two days
NCI-H522 = type: cell-based; details: NCI-H522, Non-Small Cell Lung Cancer, two days
SNB-75 = experiment: NCI60 cell growth and viability: SNB-75; type: cell-based; details: SNB-75, CNS Cancer, two days
LOX IMVI = experiment: NCI60 cell growth and viability: LOX IMVI; type: cell-based; details: Melanoma, two days
MALME-3M = experiment: NCI60 cell growth and viability: MALME-3M; type: cell-based; details: Melanoma, two days
M14 = experiment: NCI60 cell growth and viability: M14; type: cell-based; details: M14, Melanoma, two days
MDA-MB-435 = experiment: NCI60 cell growth and viability: MDA-MB-435; type: cell-based; details: MDA-MB-435, Melanoma, two days
UACC-257 = experiment: NCI60 cell growth and viability: UACC-257; type: cell-based; details: UACC-257, Melanoma, two days
MCF7 = experiment: NCI60 cell growth and viability: MCF7; type: cell-based; details: MCF7, Breast Cancer, two days
BT-549 = experiment: NCI60 cell growth and viability: BT-549; type: cell-based; details: BT-549, Breast Cancer, two days
MDA-MB-468 = experiment: NCI60 cell growth and viability: MDA-MB-468
[5] = Homo sapiens, 48 h, read-out: log10 [GI50 (M)] (converted)
[6] = Homo sapiens, 48 h, read-out: log10 [LC50 (M)] (converted)

For O=C(Nc1ccc(F)cc1)Nc1ccc(Cl)c([N+](=O)[O-])c1 [Compound 0017, 1-(4-chloro-3-nitrophenyl)-3-(4-fluorophenyl)urea], the ΔTm at 25 µM ([1]; Table 1, 5 μM HSF1 DBD, 25PM Compound, positive = stabilizes, negative = destabilizes HSF1) was 3 °C, the “binding to HSF1” value ([1]; thermal denaturation assay) was “binds HSF1” and the “heat shock induced chaperone (Hsp25 and Hsp70) expression” value [2] was “dose-dependently inhibited”. The “HSF1 negatively regulated transcripts” value [3] was “de-repressed”, the “expression of HSF1 positively regulated transcripts” value [3] was “dose-dependently repressed” and the “growth of a broad range of cancer cells” value [4] was “inhibited the growth of a broad range of cancer cells”. For the same molecule, the GI50 (CCRF-CEM; [5]) was 3.31e-06 M, the CC50 (CCRF-CEM; [6]) was no less than 0.0001 M and the “log10 [TGI (M)]” value (CCRF-CEM) was −4.00 log10 M. For the same molecule, the GI50 (RPMI-8226; [5]) was 1.91e-06 M, the CC50 (RPMI-8226; [6]) was no less than 0.0001 M and the “log10 [TGI (M)]” value (RPMI-8226) was −5.07 log10 M. The GI50 (A549/ATCC; [5]) was 3.09e-06 M, the CC50 (A549/ATCC; [6]) was no less than 0.0001 M and the “log10 [TGI (M)]” value (A549/ATCC) was −4.79 log10 M. For the same molecule, the GI50 (EKVX; [5]) was 2.82e-06 M, the CC50 (EKVX; [6]) was 6.17e-05 M and the “log10 [TGI (M)]” value (EKVX) was −4.96 log10 M. The “log10 [TGI (M)]” value (HOP-62) was −4.80 log10 M, the GI50 (HOP-62; [5]) was 3.8e-06 M and the CC50 (HOP-62; [6]) was 5.62e-05 M. For the same molecule, the GI50 (NCI-H226; [5]) was 2.29e-06 M, the LC50 (NCI-H226; [6]) was 3.63e-05 M and the “log10 [TGI (M)]” value (NCI-H226) was −5.03 log10 M. For the same molecule, the GI50 (NCI-H460; [5]) was 2.69e-06 M, the CC50 (NCI-H460; [6]) was 4.57e-05 M and the “log10 [TGI (M)]” value (NCI-H460) was −4.94 log10 M. For the same molecule, the GI50 (NCI-H522; [5]) was 2.45e-06 M, the CC50 (NCI-H522; [6]) was 4.68e-05 M and the “log10 [TGI (M)]” value (NCI-H522) was −4.97 log10 M. For the same molecule, the GI50 (SNB-75; [5]) was 5.89e-06 M, the CC50 (SNB-75; [6]) was no less than 0.0001 M and the “log10 [TGI (M)]” value (SNB-75) was −4.00 log10 M. The GI50 (LOX IMVI; [5]) was 3.55e-06 M, the CC50 (LOX IMVI; [6]) was 4.07e-05 M and the “log10 [TGI (M)]” value (LOX IMVI) was −4.91 log10 M. For the same molecule, the GI50 (MALME-3M; [5]) was 2.34e-06 M, the CC50 (MALME-3M; [6]) was 2.95e-05 M and the “log10 [TGI (M)]” value (MALME-3M) was −5.14 log10 M. For the same molecule, the GI50 (M14; [5]) was 3.16e-06 M, the CC50 (M14; [6]) was 3.8e-05 M and the “log10 [TGI (M)]” value (M14) was −4.91 log10 M. For the same molecule, the GI50 (MDA-MB-435; [5]) was 3.09e-06 M, the CC50 (MDA-MB-435; [6]) was 4.37e-05 M and the “log10 [TGI (M)]” value (MDA-MB-435) was −4.94 log10 M. For the same molecule, the GI50 (UACC-257; [5]) was 2.75e-06 M, the CC50 (UACC-257; [6]) was 3.09e-05 M and the “log10 [TGI (M)]” value (UACC-257) was −5.05 log10 M. The GI50 (MCF7; [5]) was 2.63e-06 M, the CC50 (MCF7; [6]) was 7.08e-05 M and the “log10 [TGI (M)]” value (MCF7) was −4.92 log10 M. For the same molecule, the “log10 [TGI (M)]” value (BT-549) was −4.97 log10 M, the GI50 (BT-549; [5]) was 2.88e-06 M and the CC50 (BT-549; [6]) was 3.31e-05 M. The GI50 (MDA-MB-468; Homo sapiens, MDA-MB-468, 48 h, read-out: log10 [GI50 (M)] (converted)) was 2.14e-06 M, the CC50 (MDA-MB-468; Homo sapiens, MDA-MB-468, 48 h, read-out: log10 [LC50 (M)] (converted)) was 3.55e-05 M and the “log10 [TGI (M)]” value (MDA-MB-468; MDA-MB-468, Breast Cancer, two days) was −5.12 log10 M.
